Measurements reported in patent publication US20170291875A1, “QUINOLONES AS INHIBITORS OF CLASS IV BROMODOMAIN PROTEINS” (UCL BUSINESS PLC, priority 2014, published 2017).

Legend:
[1] = target: T1, BRPF1B (Homo sapiens, UniProt P55201); experiment: BROMOscan bromodomain competitive binding assay (DiscoveRx), BRPF1B; conditions: BROMOscan platform, n = 2 unless cell says n = 4
T1 construct: purchased DiscoveRx (BROMOscan platform); host or cells: E. coli host derived from BL21 (T7 phage)
T1 sequence (P55201 628-732 limits assumed): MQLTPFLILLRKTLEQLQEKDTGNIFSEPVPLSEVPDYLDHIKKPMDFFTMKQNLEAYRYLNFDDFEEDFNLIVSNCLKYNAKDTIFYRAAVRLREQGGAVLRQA
Description: (§1) Compounds were tested using the commercially available BROMOscan™ Platform (DiscoveRx): http://www.discoverx.com/technologies-platforms/competitive-binding-technology/bromoscan-technology-platform/bromoscan-assay-process.
(§2) Bromodomain assays. T7 phage strains displaying bromodomains were grown in parallel in 24-well blocks in an E. coli host derived from the BL21 strain. E. coli were grown to log-phase and infected with T7 phage from a frozen stock (multiplicity of infection=0.4) and incubated with shaking at 32° C. until lysis (90-150 minutes). The lysates were centrifuged (5,000×g) and filtered (0.2 μm) to remove cell debris. […] The liganded beads were blocked with excess biotin and washed with blocking buffer (SeaBlock (Pierce), 1% BSA, 0.05% Tween 20, 1 mM DTT) to remove unbound ligand and to reduce non-specific phage binding. […] Test compounds were prepared as 1000× stocks in 100% DMSO and subsequently diluted 1:10 in monoethylene glycol (MEG) to create stocks at 100× the screening concentration (resulting stock solution is 10% DMSO/90% MEG). The compounds were then diluted directly into the assays such that the final concentration of DMSO and MEG were 0.1% and 0.9%, respectively. All reactions were performed in polystyrene 96-well plates in a final volume of 0.135 ml. […] The bromodomain concentration in the eluates was measured by qPCR.
(§3) An 11-point 3-fold serial dilution of each test compound was prepared in 100% DMSO at 1000× final test concentration. This serial is then diluted to 100× in ethylene glycol and subsequently diluted to 1× in the assay (final DMSO concentration=0.1%, Ethylene glycol concentration=0.9%). Most Kds were determined using a compound top concentration=10,000 nM.
(§4) Binding constants (Kds) were calculated with a standard dose-response curve using the Hill equation: […]
(§5) The Hill Slope was set to −1. Curves were fitted using a non-linear least square fit with the Levenberg-Marquardt algorithm.
(§6) BROMOscan™ uses the same assay technology as KINOMEscan™. For a more detailed description of this assay technology, see Fabian et al.12

[2] = target: T2, BRD1 (Homo sapiens, UniProt O95696); experiment: BROMOscan bromodomain competitive binding assay (DiscoveRx), BRD1; conditions: BROMOscan platform, n = 2
T2 construct: purchased DiscoveRx (BROMOscan platform); host or cells: E. coli host derived from BL21 (T7 phage)
T2 sequence (O95696 562-666 limits assumed): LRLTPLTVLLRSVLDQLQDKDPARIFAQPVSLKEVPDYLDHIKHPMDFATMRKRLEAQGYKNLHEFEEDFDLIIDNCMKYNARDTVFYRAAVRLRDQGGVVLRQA
Description: as §1, §2, §3, §4, §5, §6

[3] = target: T3, BRD9 (Homo sapiens, UniProt Q9H8M2); experiment: BROMOscan bromodomain competitive binding assay (DiscoveRx), BRD9; conditions: BROMOscan platform, n = 2
T3 construct: purchased DiscoveRx (BROMOscan platform); host or cells: E. coli host derived from BL21 (T7 phage)
T3 sequence (Q9H8M2 136-240 limits assumed): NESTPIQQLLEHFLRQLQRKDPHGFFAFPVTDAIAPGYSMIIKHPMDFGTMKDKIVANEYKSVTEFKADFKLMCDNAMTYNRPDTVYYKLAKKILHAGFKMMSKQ
Description: as §1, §2, §3, §4, §5, §6

[4] = target: T4, BRPF3 (Homo sapiens, UniProt Q9ULD4); experiment: BROMOscan bromodomain competitive binding assay (DiscoveRx), BRPF3; conditions: BROMOscan platform, n = 2
T4 construct: purchased DiscoveRx (BROMOscan platform); host or cells: E. coli host derived from BL21 (T7 phage)
T4 sequence (Q9ULD4 589-693 limits assumed): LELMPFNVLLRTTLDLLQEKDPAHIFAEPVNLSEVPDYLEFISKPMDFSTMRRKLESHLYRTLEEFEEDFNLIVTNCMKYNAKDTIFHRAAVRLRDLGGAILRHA
Description: as §1, §2, §3, §4, §5, §6

| Kd [1] [nM] | Kd [2] [nM] | Kd [3] [nM] | Kd [4] [nM] | SMILES |
| --- | --- | --- | --- | --- |
| 31 |  |  |  | Cc1cc2cc(NS(=O)(=O)C3CCCCC3)ccc2n(C)c1=O [Compound 56, N-(1,3-dimethyl-2-oxo-1,2-dihydroquinolin-6-yl)cyclohexanesulfonamide] |
| 52 |  |  |  | COc1cc(C#N)ccc1S(=O)(=O)N(C)c1ccc2c(c1)cc(C)c(=O)n2C [Compound 59, 4-cyano-N-(1,3-dimethyl-2-oxo-1,2-dihydroquinolin-6-yl)-2-methoxy-N-methylbenzenesulfonamide] |
| 420 |  |  |  | COc1cc2c(cc1NS(=O)(=O)c1ccc(N)cc1)cc(C)c(=O)n2C [Compound 25, 4-amino-N-(7-methoxy-1,3-dimethyl-2-oxo-1,2-dihydroquinolin-6-yl)benzenesulfonamide] |
| 910 | 6700 |  |  | CN(c1ccc2c(ccc(=O)n2C)c1)S(=O)(=O)c1ccc(C#N)cc1 [Compound 34, 4-cyano-N-methyl-N-(1-methyl-2-oxo-1,2-dihydroquinolin-6-yl)benzenesulfonamide] |
| 10 |  |  |  | COc1cc(C#N)ccc1S(=O)(=O)Nc1cc(F)c2c(c1)cc(C)c(=O)n2C [Compound 49, 4-cyano-N-(8-fluoro-1,3-dimethyl-2-oxo-1,2-dihydroquinolin-6-yl)-2-methoxybenzenesulfonamide] |
| 66 |  |  |  | CCc1cc2cc(NS(=O)(=O)c3ccc(C#N)cc3OC)ccc2n(C)c1=O [Compound 45, 4-cyano-N-(3-ethyl-1-methyl-2-oxo-1,2-dihydroquinolin-6-yl)-2-methoxybenzenesulfonamide] |
| 1100 |  |  |  | CC(C)S(=O)(=O)Nc1ccc2c(ccc(=O)n2C)c1 [Compound 53, N-(1-methyl-2-oxo-1,2-dihydroquinolin-6-yl)propane-2-sulfonamide] |
| 43 | 200 | 910 | 1000 | Cn1c(=O)ccc2cc(NS(=O)(=O)c3ccc(C#N)cc3)ccc21 [Compound 4, 4-cyano-N-(1-methyl-2-oxo-1,2-dihydroquinolin-6-yl)benzenesulfonamide] |
| 380 |  |  |  | Cn1c(=O)ccc2cc(NS(=O)(=O)C3CCCCC3)ccc21 [Compound 55, N-(1-methyl-2-oxo-1,2-dihydroquinolin-6-yl)cyclohexanesulfonamide] |
| 210 | 840 |  |  | Cn1c(=O)ccc2c(Br)c(NS(=O)(=O)c3ccc(C#N)cc3)ccc21 [Compound 18, N-(5-bromo-1-methyl-2-oxo-1,2-dihydroquinolin-6-yl)-4-cyanobenzenesulfonamide] |
| 17 | 190 |  | 590 | COc1cc2c(cc1NS(=O)(=O)c1ccccc1)cc(C)c(=O)n2C [Compound 21, N-(7-methoxy-1,3-dimethyl-2-oxo-1,2-dihydroquinolin-6-yl)benzenesulfonamide] |
| 9 | 130 |  |  | COc1ccccc1S(=O)(=O)Nc1ccc2c(c1)cc(C)c(=O)n2C [Compound P-001, N-(1,3-dimethyl-2-oxo-1,2-dihydroquinolin-6-yl)-2-methoxybenzenesulfonamide, reference compound] |
| 100 | 150 |  |  | Cn1c(=O)ccc2cc(S(=O)(=O)Nc3ccc(C#N)cc3)ccc21 [Compound 38, N-(4-cyanophenyl)-1-methyl-2-oxo-1,2-dihydroquinoline-6-sulfonamide] |
| 15 | 100 |  | 280 | COc1cc2c(cc1NS(=O)(=O)c1ccc(C#N)cc1)cc(C)c(=O)n2C [Compound 22, 4-cyano-N-(7-methoxy-1,3-dimethyl-2-oxo-1,2-dihydroquinolin-6-yl)benzenesulfonamide] |
| 47 | 390 |  |  | CCn1c(=O)ccc2cc(NS(=O)(=O)c3ccc(C#N)cc3)ccc21 [Compound 35, 4-cyano-N-(1-ethyl-2-oxo-1,2-dihydroquinolin-6-yl)benzenesulfonamide] |
| 1200 |  |  |  | CCS(=O)(=O)Nc1ccc2c(ccc(=O)n2C)c1 [Compound 52, N-(1-methyl-2-oxo-1,2-dihydroquinolin-6-yl)ethanesulfonamide] |

| Kd [1] [nM] | Kd [2] [nM] | Kd [3] [nM] | Kd [4] [nM] | SMILES |
| --- | --- | --- | --- | --- |
| 53 | 520 | 2700 | 2200 | COc1cc2c(ccc(=O)n2C)cc1NS(=O)(=O)c1ccc(C#N)cc1 [Compound 11, 4-cyano-N-(7-methoxy-1-methyl-2-oxo-1,2-dihydroquinolin-6-yl)benzenesulfonamide] |
| 48 |  |  |  | COc1cc2c(cc1NS(=O)(=O)c1ccccc1OC(F)(F)F)cc(C)c(=O)n2C [Compound 67, N-(7-methoxy-1,3-dimethyl-2-oxo-1,2-dihydroquinolin-6-yl)-2-(trifluoromethoxy)benzenesulfonamide] |
| 24 | 150 |  |  | Cc1cc(=O)n(C)c2ccc(NS(=O)(=O)c3ccc(C#N)cc3)cc12 [Compound 30, 4-cyano-N-(1,4-dimethyl-2-oxo-1,2-dihydroquinolin-6-yl)benzenesulfonamide] |
| 44 | 230 |  |  | Cn1c(=O)ccc2cc(NS(=O)(=O)c3ccc(Cl)c(Cl)c3)ccc21 [Compound 9, 3,4-dichloro-N-(1-methyl-2-oxo-1,2-dihydroquinolin-6-yl)benzenesulfonamide] |
| 430 | 1700 |  |  | Cn1c(=O)ccc2cc(NS(=O)(=O)c3ccccc3C#N)ccc21 [Compound 2, 2-cyano-N-(1-methyl-2-oxo-1,2-dihydroquinolin-6-yl)benzenesulfonamide] |
| 5 |  |  |  | COc1cc(C(N)=O)ccc1S(=O)(=O)Nc1ccc2c(c1)cc(C)c(=O)n2C [Compound 62, 4-(N-(1,3-dimethyl-2-oxo-1,2-dihydroquinolin-6-yl)sulfamoyl)-3-methoxybenzamide] |
| 56 | 270 |  |  | Cn1c(=O)ccc2cc(NS(=O)(=O)c3cccc(C#N)c3)ccc21 [Compound 3, 3-cyano-N-(1-methyl-2-oxo-1,2-dihydroquinolin-6-yl)benzenesulfonamide] |
| 140 |  |  |  | COc1cc2c(cc1NS(=O)(=O)c1ccc(C#N)cc1)c(C)c(C)c(=O)n2C [Compound 50, 4-cyano-N-(7-methoxy-1,3,4-trimethyl-2-oxo-1,2-dihydroquinolin-6-yl)benzenesulfonamide] |
| 46 | 210 |  |  | COc1c(NS(=O)(=O)c2ccc(C#N)cc2)ccc2c1ccc(=O)n2C [Compound 16, 4-cyano-N-(5-methoxy-1-methyl-2-oxo-1,2-dihydroquinolin-6-yl)benzenesulfonamide] |
| 65 | 1400 |  | 7600 | Cn1c(=O)ccc2cc(NS(=O)(=O)c3ccccc3)ccc21 [Compound 1, N-(1-methyl-2-oxo-1,2-dihydroquinolin-6-yl)benzenesulfonamide] |
| 2200 |  |  |  | Cn1c(=O)ccc2cc(NS(C)(=O)=O)ccc21 [Compound 51, N-(1-methyl-2-oxo-1,2-dihydroquinolin-6-yl)methanesulfonamide] |
| 55 |  |  |  | CCOc1cc2c(ccc(=O)n2C)cc1NS(=O)(=O)c1ccc(C#N)cc1 [Compound 13, 4-cyano-N-(7-ethoxy-1-methyl-2-oxo-1,2-dihydroquinolin-6-yl)benzenesulfonamide] |
| 39 |  |  |  | CC(C)Oc1cc2c(ccc(=O)n2C)cc1NS(=O)(=O)c1ccc(C#N)cc1 [Compound 14, 4-cyano-N-(7-isopropoxy-1-methyl-2-oxo-1,2-dihydroquinolin-6-yl)benzenesulfonamide] |
| 29 | 380 |  | 2200 | COc1cc2c(ccc(=O)n2C)cc1NS(=O)(=O)c1ccccc1 [Compound 10, N-(7-methoxy-1-methyl-2-oxo-1,2-dihydroquinolin-6-yl)benzenesulfonamide] |
| 520 |  |  |  | Cn1c(=O)ccc2cc(NS(=O)(=O)C3CC3)ccc21 [Compound 54, N-(1-methyl-2-oxo-1,2-dihydroquinolin-6-yl)cyclopropanesulfonamide] |
